In patent publication US20170081286A1, “2-[[[2-[(HYDROXYACETYL)AMINO]-4-PYRIDINYL]METHYL]THIO]-N-[4-(TRIFLUOROMETHOXY)PHENYL]-3-PYRIDINECARBOXAMIDE BENZENESULFONATE, CRYSTAL OF SAME, CRYSTAL POLYMORPH THEREOF, AND METHODS FOR PRODUCTION THEREOF” (Santen Pharmaceutical Co., Ltd., priority 2009, published 2017):

Tests used:
[1] = test system: Crl:CD (SD) rat; test: Rat 4-week repeated oral administration toxicity test of benzenesulfonate of compound A, stomach histopathology; assay type: in vivo; settings: once a day, 4 weeks, 30 mg/kg
Procedure: (§1) i) To Crl:CD (SD) rat was orally administered compound A ([…]) suspended in a 1% methylcellulose liquid once a day for 7 days. ii) After completion of the administration, the rat was exsanguinated to death under ether anesthesia, then the stomach was removed, fixed in a 10% neutral buffered formalin aqueous solution, and then stained with hematoxylin-eosin to prepare a specimen, and the change in the stomach was observed histopathologically. 2) Rat 4-week repeated oral administration toxicity test of benzenesulfonate of compound A
i) To Crl:CD (SD) rat was orally administered benzenesulfonate of compound A ([…]) suspended in a 1% methylcellulose liquid once a day for 4 weeks. ii) After completion of the administration, the rat was exsanguinated to death under ether anesthesia, then the stomach was removed, fixed in a 10% neutral buffered formalin aqueous solution, and then stained with hematoxylin-eosin to prepare a specimen, and the change in the stomach was observed histopathologically.

[2] = Storage stability test of salts of compound A (1-week preliminary stability test, content by HPLC); assay type: physicochemical; settings: for decomposition / decrease in purity on storage (in words): 1-week preliminary stability test (severe test), light, humidity and other factors; for content of salt of compound A after storage, relative to the content before storage of 100%: HPLC
Procedure: For examining the storage stability for these salts with compound A, a 1-week preliminary stability test (severe test) was executed.
<Storage Stability Tests for Benzenesulfonate, Methanesulfonate and p-Toluenesulfonate of Compound A (1-Week Preliminary Stability Test)>
For benzenesulfonate, methanesulfonate and p-toluenesulfonate of compound A, after storing under the conditions of 40° C. 75% RH, 60° C. or light (1000 lux/hr), the content of each salt of compound A was measured by HPLC. The percentage of change, relative to the content before storage of 100%, was calculated.

[3] = test system: rat adjuvant arthritis model; settings: described in PTL 1; cited from earlier work
[4] = test system: rat choroidal neovascularization model; settings: described in PTL 1; cited from earlier work
[5] = test system: tumor-bearing mouse model; settings: described in PTL 1; cited from earlier work
[6] = test system: VEGF-induced HUVEC proliferation; settings: described in PTL 1; cited from earlier work
[7] = test system: Crl:CD (SD) rat; test: Rat 1-week repeated oral administration toxicity test of compound A (free body), stomach histopathology; assay type: in vivo; settings: once a day, 1 week (7 days), 30 mg/kg
Procedure: 1) Rat 1-week repeated oral administration toxicity test of compound A (free body)
as §1

For `O=C(CO)Nc1cc(CSc2ncccc2C(=O)Nc2ccc(OC(F)(F)F)cc2)ccn1.O=S(=O)(O)c1ccccc1` [benzenesulfonate of compound A, benzenesulfonate of 2-[[[2-[(hydroxyacetyl)amino]-4-pyridinyl]methyl]thio]-N-[4-(trifluoromethoxy)phenyl]-3-pyridinecarboxamide], the “mineral deposition in the stomach” value [1] was “not observed”, the “decomposition / decrease in purity on storage (in words)” value (shortened to “decomposition / decrease in purity”) [2] was “did not show a decrease in purity” and the “content of salt of compound A after storage, relative to the content before storage of 100%” value ([2]; 40° C. 75% RH/1 week) was 100.0%. The “content of salt of compound A after storage, relative to the content before storage of 100%” value ([2]; 60° C./1 week) was 100.0% and the “content of salt of compound A after storage, relative to the content before storage of 100%” value ([2]; 1000 lux/hr, 1 week) was 100.0%.
For `O=C(CO)Nc1cc(CSc2ncccc2C(=O)Nc2ccc(OC(F)(F)F)cc2)ccn1` [compound A, 2-[[[2-[(hydroxyacetyl)amino]-4-pyridinyl]methyl]thio]-N-[4-(trifluoromethoxy)phenyl]-3-pyridinecarboxamide], the “paw edema suppressing effect” value [3] is given as “exhibits a paw edema suppressing effect”, the “choroidal neovascularization inhibiting effect” value [4] is given as “exhibits a choroidal neovascularization inhibiting effect” and the “tumor proliferation suppressing effect” value [5] is given as “exhibits a tumor proliferation suppressing effect”. The “cell proliferation inhibiting effect” value [6] was “exhibits a cell proliferation inhibiting effect” and the “mineral deposition in the stomach” value [7] was “observed”.
With `CS(=O)(=O)O.O=C(CO)Nc1cc(CSc2ncccc2C(=O)Nc2ccc(OC(F)(F)F)cc2)ccn1` [methanesulfonate of compound A] the “decomposition / decrease in purity” value [2] was “decomposed by light”, the “content of salt of compound A after storage, relative to the content before storage of 100%” value ([2]; 40° C. 75% RH/1 week) was 99.8% and the “content of salt of compound A after storage, relative to the content before storage of 100%” value ([2]; 60° C./1 week) was 99.9%. The “content of salt of compound A after storage, relative to the content before storage of 100%” value ([2]; 1000 lux/hr, 1 week) was 99.1%.
With p-toluenesulfonate the “decomposition / decrease in purity” value [2] was “decomposed by humidity”, the “content of salt of compound A after storage, relative to the content before storage of 100%” value ([2]; 40° C. 75% RH/1 week) was 92.3% and the “content of salt of compound A after storage, relative to the content before storage of 100%” value ([2]; 60° C./1 week) was 99.3%. The “content of salt of compound A after storage, relative to the content before storage of 100%” value ([2]; 1000 lux/hr, 1 week) was 99.8%.
